{
  "source": "patent US4118506A",
  "about": "“Pharmaceutical compositions containing 1,3-dithiol-2-ylidene malonate derivatives” (Nihon Nohyaku Co., Ltd., priority 1976, dated 1978)",
  "key": {"[1]": {"test_system": "bile flow and excretion of biliary salt", "experiment": "cholagogic action: bile flow and biliary salt excretion", "type": "in vivo, rat (SD-JCL strain)", "design": "key to excretion of biliary salt: relative to 1 h pre-drug amount taken as 100", "method": "The male rat (4 week-old, SD-JCL strain) was anesthetized with sodium pentobarbital (37.5 mg/kg, intraperitoneal injection). The abdominal cavity was opened through a midline incision. The common bile duct was catheterized with polyethylene tube o.d. 0.8 mm. The catheter was brought to the outside through the abdominal incision wound prior to closing. Bile was collected from the catheter continuously with time intervals of one hour. The quantity of bile produced in one hour was determined by weighing and that of biliary salt was determined by enzymatic method (Ikagaku Jikkenho Koza 1B, Biological Constituents II, edited by Tamino […]). The amount of biliary salts was represented as chloic acid equivalent. In the representation of the results, the quantities of bile and biliary salts produced in one hour prior to the administration of drug were taken as 100. […] As reference, anethol trithion was used."}, "[2]": {"test_system": "fatty liver induced by ethionine", "experiment": "effect on fatty liver, ethionine model", "type": "in vivo, mouse (dd-strain)", "details": "250 mg/kg oral", "source_text": "There are known many factors inducing fatty liver. But, the fatty liver is grouped into a couple of patterns from the mechanism of lipid accumulation or metabolism of lipoprotein in the liver. Ethionine is a typical example which induces first pattern of fatty liver. It inhibits RNA and protein synthesis and destroys polysome of the liver cell. Fatty liver is induced by inhibition of the protein synthesis and disturbance of lipoprotein secretion.\nUsually, fatty liver is closely related to the accumulation of triglyceride in the liver. In the present example, the degree of fatty liver and protective or therapeutic effect on the fatty liver was evaluated by measurement of triglyceride content in the liver.\nThe compounds of this invention and methionine were independently dissolved or suspended into olive oil and administered orally to the male mouse (4 week-old dd-strain) at the dose of 250 mg/kg. One hour before it, simultaneously with it or one hour after it, ethionine dissolved in equimolar NaOH solution was administered intraperitoneally at the dose of 200 mg/kg. Twenty four hours after the administration of ethionine, the animals were sacrificed and triglyceride content in the liver was determined by chromotropic acid method."}, "[3]": {"test_system": "acute liver damage induced by dimethylnitrosamine", "experiment": "protective effect on acute liver damage associated with centrilobular necrosis, dimethylnitrosamine model", "type": "in vivo, mouse (dd)", "details": "dimethylnitrosamine 0.05 ml/kg i.p.; 100 mg/kg oral 6 h before; 15 h after", "method": "Bromobenzene (hereinafter abbreviated as BB), Dimethylnitrosamine (hereinafter abbreviated as DMN) and chloroform (hereinafter abbreviated as CF) resemble carbon tetrachloride in inducing liver damage associated with centrilobular necrosis.\nTest compound or anethol trithion was orally administered to animal at the dose of 100 mg/kg. Twenty four hours after it (in the case of dimethylnitrosamine, exceptionally fifteen hours after it) the animals were sacrificed and blood samples were collected. Indices of hepatotoxicity adoptable in each chemical were measured, from which the efficacy of the compound was evaluated.\nDMN male mouse 0.05 intraper-"}, "[4]": {"test_system": "chronic liver damage induced by thioacetamide", "experiment": "therapeutic effect on chronic liver damage, thioacetamide model (BSP test)", "type": "in vivo, rat (Sprague Dawley)", "details": "Group B, diet + 0.2% compound", "method": "In the tests of this Example, TAA was repeatedly administered to animals to prepare test animals suffering from somewhat chronic liver damages, and then the present compounds were administered thereto to know whether or not the compounds were effective against chronic hepatitis.\nThe degree of the liver damage and the therapeutic effects of the compounds were evaluated according to BSP test. The BSP test is a method in which BSP (sulfobromophthalein sodium), a dye known to be quickly metabolized in and excreted from the liver, is intravenously injected into animals and, after a definite period of time, the blood is taken out to measure the amount of BSP remaining in the plasma. In case the animals are suffering from the liver damage, the dye will remain, according to the degree of the damage, at the stage where a major portion of BSP is metabolized and excreted in the case of normal animals.\nFive groups of rats (Sprague Dawley strain) were treated as follows:\nGroup A: The rats were orally administered with 100 mg/kg of thioacetamide,at 3 days intervals for 36 days (12 times of the administration), then were submitted for 10 days to a normal diet.\nGroup B: The rats were orally administered with 100 mg/kg of thioacetamide at 3 days intervals for 36 days (12 times of the administration), then were submitted for 10 days to the normal diet + 0.2% of compound 4.\nGroup C: The rats were submitted to the normal diet as the control.\nFive rats were sacrificed from each group at appropriate intervals for BSP (sulfobromophthalein sodium) test, the results of which were shown as amounts (mg) of BSP remaining in ldl of plasma."}, "[5]": {"test_system": "cirrhosis induced by carbon tetrachloride", "experiment": "therapeutic effect on cirrhosis, carbon tetrachloride", "type": "in vivo, rat (SD-strain)", "details": "therapeutic group, diet 2000 ppm", "source_text": "Almost all the liver diseases induced by various causes are considered to advance, finally, to cirrhosis. Cirrhosis is a final stage of liver damage, which is difficult to classify from the causal viewpoint. Usually, experimental cirrhosis is induced by long-term repeated administration of carbon tetrachloride. The therapeutic effect of the compounds of this invention on cirrhosis, which had been caused by carbon tetrachloride administration, was examined.\nA 10% solution of carbon tetrachloride in olive oil was administered to the male rat (4 week-old SD-strain) intraperitoneally at the dose of 0.5 ml carbon tetrachloride/kg twice a week over a period of 10 weeks, to induce cirrhosis. Four days after the final administration of carbon tetrachloride, the formation of pseudo-lobulus was confirmed. Then the diseased animals were divided into two groups. Therapeutic group was submitted a diet containing 2000 ppm of Compound 4, while the positive control group was submitted a normal diet. Control group, to which olive oil alone had been administered, was submitted a normal diet.\nAt 1, 2, 4 and 8 weeks after beginning of Compound 4 feeding, 5 animals from each group were sacrificed, and the therapeutic effect on cirrhosis was evaluated by examining plasma transaminase activity (p-GPT and p-GOT, Reitman-Frankel method) and observing histopathological changes.\nDegree of cirrhosis in the histopathological examination was graded as follows: […]"}, "[6]": {"details": "5 hours after administration, 200 mg/kg oral"}},
  "data": [
    {"molecule": "CC(C)OC(=O)C(C(=O)OC(C)C)=C1SC=CS1", "note": "[Compound 4, diisopropyl 1,3-dithiol-2-ylidene malonate]", "values": [
      {"measurement": "excretion of biliary salt", "setting": "[1]; 200 mg/kg oral, 1 hour after treatment, before treatment = 100", "value": "108 ± 15"},
      {"measurement": "excretion of biliary salt", "setting": "[1]; 200 mg/kg oral, 2 hours after treatment, before treatment = 100", "value": "132 ± 25"},
      {"measurement": "excretion of biliary salt", "setting": "[1]; 200 mg/kg oral, 3 hours after treatment, before treatment = 100", "value": "138 ± 27"},
      {"measurement": "excretion of biliary salt", "setting": "[1]; 200 mg/kg oral, 4 hours after treatment, before treatment = 100", "value": "117 ± 27"},
      {"measurement": "excretion of biliary salt", "setting": "[1]; 200 mg/kg oral, 5 hours after treatment, before treatment = 100", "value": "90 ± 21"},
      {"measurement": "amount of total biliary salts excreted relative to control", "setting": "[1]; [6]", "value": 1.7, "unit": "times"},
      {"measurement": "quantity of total excreted bile relative to control", "setting": "[1]; [6]", "value": 1.2, "unit": "times"},
      {"measurement": "excretion of biliary salt", "setting": "[1]; before treatment, 1 hour, taken as 100 (normalisation)", "value": 100},
      {"measurement": "Triglyceride", "setting": "[2]; 1 hr after ethionine 200 mg/kg i.p.", "value": "10.0 ± 1.15", "unit": "mg/g-liver"},
      {"measurement": "Triglyceride", "setting": "[2]; 1 hr before ethionine 200 mg/kg i.p.", "value": "9.1 ± 1.15", "unit": "mg/g-liver"},
      {"measurement": "Triglyceride", "setting": "[2]; simultaneously with (0 hr) ethionine 200 mg/kg i.p.", "value": "5.4 ± 0.61", "unit": "mg/g-liver"},
      {"measurement": "BSP", "setting": "[3]", "value": "10 ± 2.0", "unit": "mg/dL"},
      {"measurement": "p-GPT", "setting": "[3]", "value": "204 ± 44", "unit": "Karmen unit"},
      {"measurement": "BSP remaining in plasma", "setting": "[4]; 2 days after compound administration", "value": "7.2 ± 2.5", "unit": "mg/dL"},
      {"measurement": "BSP remaining in plasma", "setting": "[4]; 5 days after compound administration", "value": "2.8 ± 0.7", "unit": "mg/dL"},
      {"measurement": "BSP remaining in plasma", "setting": "[4]; 10 days after compound administration", "value": "0.5 ± 0.1", "unit": "mg/dL"},
      {"measurement": "p-GOT activity", "setting": "[5]; 1 week", "value": "562 ± 119", "unit": "Karmen unit"},
      {"measurement": "p-GPT activity", "setting": "[5]; 1 week", "value": "169 ± 30", "unit": "Karmen unit"},
      {"measurement": "p-GOT activity", "setting": "[5]; 2 weeks", "value": "182 ± 43", "unit": "Karmen unit"},
      {"measurement": "p-GPT activity", "setting": "[5]; 2 weeks", "value": "43 ± 11", "unit": "Karmen unit"},
      {"measurement": "p-GOT activity", "setting": "[5]; 4 weeks", "value": "142 ± 48", "unit": "Karmen unit"},
      {"measurement": "p-GPT activity", "setting": "[5]; 4 weeks", "value": "45 ± 23", "unit": "Karmen unit"},
      {"measurement": "p-GOT activity", "setting": "[5]; 8 weeks", "value": "120 ± 32", "unit": "Karmen unit"},
      {"measurement": "p-GPT activity", "setting": "[5]; 8 weeks", "value": "33 ± 20", "unit": "Karmen unit"}
    ]}
  ]
}
